Reference: US12590066B2, “Fused-heterocyclyl-carbonohydrazonoyl dicyanide compounds and use thereof” (KOREA INSTITUTE OF SCIENCE AND TECHNOLOGY, priority 2020, dated 2026)

Assays:
Tau-BiFC cells = test: Cell viability (stained nuclei count) in Tau-BiFC cells; type: cell-based; settings: 10 μM compound, 48 hours; Forskolin-only group = 100% cell viability
Outline: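 Tau-BiFC cells co-treated 48 h with 30 μM forskolin and compounds (1, 3, 10 μM screen; 0.01–30 μM dose-response). BiFC fluorescence normalized to forskolin-only (100% aggregation) minus untreated gives aggregation inhibition and IC50; viability as Hoechst-stained nuclei count relative to forskolin-only.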

[1] = Liver microsome stability; type: in vitro ADME; settings: 1 μM compound, 37° C., 30 minutes, NADPH; for Dog (%) amount of substrate remaining after the reaction: dog liver microsomes 0.25 mg/mL; for Human (%) amount of substrate remaining after the reaction: human liver microsomes 0.25 mg/mL; for Mouse (%) amount of substrate remaining after the reaction: mouse liver microsomes 0.25 mg/mL; for Rat (%) amount of substrate remaining after the reaction: rat liver microsomes 0.25 mg/mL
Method: The stability of liver microsomes due to the compounds prepared according to Examples 1 to 57 was confirmed. Specifically, four types of liver microsomes (human, dog, rat, and mouse, each 0.25 mg/mL), a 0.1 M phosphate buffer solution (pH 7.4), and each of the compounds at a concentration of 1 μM were mixed and pre-cultured at 37° C. for 5 minutes and further cultured at 37° C. for 30 minutes together with an NADPH generation system solution added thereto. Thereafter, the reaction was terminated by adding an acetonitrile solution containing an internal standard material (chloropropamide) and centrifuged for 5 minutes (14,000 rpm, 4° C.), and then a supernatant was injected into an LC-MS/MS system for analysis of substrate drugs to thereby evaluate metabolic stability due to 8 types of compounds.
The amount of the substrate remaining after the reaction was analyzed using the Shimadzu Nexera XR system and TSQ Vantage (Thermo). In an HPLC column, Kinetex XB-C18 (2.1 mm×100 mm, particle size of 2.6 μm; Phenomenex, USA) was used, and mobile phases were (A) distilled water containing 0.1% formic acid and (B) acetonitrile containing 0.1% formic acid. Analyst software (version 1.6.3) and Xcalibur (version 1.6.1) were used for data analysis.

N#CC(C#N)=NNc1ccc2[nH]c(=O)sc2c1 [Compound 13, (2-oxo-2,3-dihydrobenzo[d]thiazol-6-yl)carbonohydrazonoyl dicyanide]
Cell viability (% @10 μM) (Tau-BiFC cells): 115.8% | Dog (%) amount of substrate remaining after the reaction [1]: >100% | Human (%) amount of substrate remaining after the reaction [1]: >100% | Mouse (%) amount of substrate remaining after the reaction [1]: >100% | Rat (%) amount of substrate remaining after the reaction [1]: >100%

Cn1ccc2c(NN=C(C#N)C#N)cccc2c1=O [Compound 5, (2-methyl-1-oxo-1,2-dihydroisoquinolin-5-yl)carbonohydrazonoyl dicyanide]
Cell viability (% @10 μM) (Tau-BiFC cells): 41.4% | Dog (%) amount of substrate remaining after the reaction [1]: >100% | Human (%) amount of substrate remaining after the reaction [1]: 98.1% | Mouse (%) amount of substrate remaining after the reaction [1]: 92.9% | Rat (%) amount of substrate remaining after the reaction [1]: >100%

Cn1c(=O)n(C)c2cc(NN=C(C#N)C#N)c(Cl)cc21 [Compound 10, (6-chloro-1,3-dimethyl-2-oxo-2,3-dihydro-1H-benzo[d]imidazol-5-yl)carbonohydrazonoyl dicyanide]
Cell viability (% @10 μM) (Tau-BiFC cells): 145.3% | Dog (%) amount of substrate remaining after the reaction [1]: 98.1% | Human (%) amount of substrate remaining after the reaction [1]: >100% | Mouse (%) amount of substrate remaining after the reaction [1]: 92.6% | Rat (%) amount of substrate remaining after the reaction [1]: 92.7%

CC(C)n1ccc2c(NN=C(C#N)C#N)cccc2c1=O [Compound 6, (2-isopropyl-1-oxo-1,2-dihydroisoquinolin-5-yl)carbonohydrazonoyl dicyanide]
Cell viability (% @10 μM) (Tau-BiFC cells): 118.1% | Dog (%) amount of substrate remaining after the reaction [1]: 95% | Human (%) amount of substrate remaining after the reaction [1]: 94.2% | Mouse (%) amount of substrate remaining after the reaction [1]: 87% | Rat (%) amount of substrate remaining after the reaction [1]: >100%

Cn1c(=O)oc2cc(NN=C(C#N)C#N)ccc21 [Compound 16, (3-methyl-2-oxo-2,3-dihydrobenzo[d]oxazol-6-yl)carbonohydrazonoyl dicyanide]
Cell viability (% @10 μM) (Tau-BiFC cells): 129.8% | Dog (%) amount of substrate remaining after the reaction [1]: 95.7% | Human (%) amount of substrate remaining after the reaction [1]: 98.9% | Mouse (%) amount of substrate remaining after the reaction [1]: 81% | Rat (%) amount of substrate remaining after the reaction [1]: 89.1%

N#CC(C#N)=NNc1ccc2c(c1)sc(=O)n2C(F)F [Compound 19, (3-(difluoromethyl)-2-oxo-2,3-dihydrobenzo[d]thiazol-6-yl)carbonohydrazonoyl dicyanide]
Cell viability (% @10 μM) (Tau-BiFC cells): 125.3% | Dog (%) amount of substrate remaining after the reaction [1]: 80.4% | Human (%) amount of substrate remaining after the reaction [1]: 99.7% | Mouse (%) amount of substrate remaining after the reaction [1]: 58.7% | Rat (%) amount of substrate remaining after the reaction [1]: 69.7%

Cn1ccc2ccc(NN=C(C#N)C#N)cc2c1=O [Compound 2, (2-methyl-1-oxo-1,2-dihydroisoquinolin-7-yl)carbonohydrazonoyl dicyanide]
Cell viability (% @10 μM) (Tau-BiFC cells): 57.5% | Dog (%) amount of substrate remaining after the reaction [1]: 2.5% | Human (%) amount of substrate remaining after the reaction [1]: 27% | Mouse (%) amount of substrate remaining after the reaction [1]: 63.4% | Rat (%) amount of substrate remaining after the reaction [1]: 88%

CC(C)n1c(=O)oc2cc(NN=C(C#N)C#N)ccc21 [Compound 20, (3-isopropyl-2-oxo-2,3-dihydrobenzo[d]oxazol-6-yl)carbonohydrazonoyl dicyanide]
Cell viability (% @10 μM) (Tau-BiFC cells): 106% | Dog (%) amount of substrate remaining after the reaction [1]: 95.6% | Human (%) amount of substrate remaining after the reaction [1]: 98.1% | Mouse (%) amount of substrate remaining after the reaction [1]: 73.1% | Rat (%) amount of substrate remaining after the reaction [1]: 73.3%

CC(C)n1c(=O)n(C(C)C)c2ncc(NN=C(C#N)C#N)cc21 [Compound 34, (1,3-diisopropyl-2-oxo-2,3-dihydro-1H-imidazo[4,5-b]pyridin-6-yl)carbonohydrazonoyl dicyanide]
Cell viability (% @10 μM) (Tau-BiFC cells): 120% | Human (%) amount of substrate remaining after the reaction [1]: >100% | Mouse (%) amount of substrate remaining after the reaction [1]: 86.6% | Rat (%) amount of substrate remaining after the reaction [1]: 57.5%

CC(C)n1c(=O)sc2cc(NN=C(C#N)C#N)ccc21 [Compound 18, (3-isopropyl-2-oxo-2,3-dihydrobenzo[d]thiazol-6-yl)carbonohydrazonoyl dicyanide]
Cell viability (% @10 μM) (Tau-BiFC cells): 110.7% | Dog (%) amount of substrate remaining after the reaction [1]: 93.8% | Human (%) amount of substrate remaining after the reaction [1]: 85.1% | Mouse (%) amount of substrate remaining after the reaction [1]: 71.3% | Rat (%) amount of substrate remaining after the reaction [1]: 70.8%

CCn1c(=O)n(C)c2cc(NN=C(C#N)C#N)cnc21 [Compound 48, (3-ethyl-1-methyl-2-oxo-2,3-dihydro-1H-imidazo[4,5-b]pyridin-6-yl)carbonohydrazonoyl dicyanide]
Cell viability (% @10 μM) (Tau-BiFC cells): 143% | Human (%) amount of substrate remaining after the reaction [1]: 96.7% | Mouse (%) amount of substrate remaining after the reaction [1]: >100% | Rat (%) amount of substrate remaining after the reaction [1]: 96.3%

CCn1c(=O)n(C)c2ccc(NN=C(C#N)C#N)cc21 [Compound 35, (3-ethyl-1-methyl-2-oxo-2,3-dihydro-1H-benzo[d]imidazol-5-yl)carbonohydrazonoyl dicyanide]
Cell viability (% @10 μM) (Tau-BiFC cells): 130% | Human (%) amount of substrate remaining after the reaction [1]: 98.7% | Mouse (%) amount of substrate remaining after the reaction [1]: 87.1% | Rat (%) amount of substrate remaining after the reaction [1]: 86%

Cn1c(=O)n(C)c2ncc(NN=C(C#N)C#N)cc21 [Compound 12, (1,3-dimethyl-2-oxo-2,3-dihydro-1H-imidazo[4,5-b]pyridin-6-yl)carbonohydrazonoyl dicyanide]
Cell viability (% @10 μM) (Tau-BiFC cells): 145.2% | Dog (%) amount of substrate remaining after the reaction [1]: >100% | Human (%) amount of substrate remaining after the reaction [1]: >100% | Mouse (%) amount of substrate remaining after the reaction [1]: >100% | Rat (%) amount of substrate remaining after the reaction [1]: 94.9%

N#CC(C#N)=NNc1ccc2c(c1)n(C(F)F)c(=O)n2C(F)F [Compound 24, (1,3-bis(difluoromethyl)-2-oxo-2,3-dihydro-1H-benzo[d]imidazol-5-yl)carbonohydrazonoyl dicyanide]
Cell viability (% @10 μM) (Tau-BiFC cells): 125.1% | Dog (%) amount of substrate remaining after the reaction [1]: 88.1% | Human (%) amount of substrate remaining after the reaction [1]: 88.2% | Mouse (%) amount of substrate remaining after the reaction [1]: 84.1% | Rat (%) amount of substrate remaining after the reaction [1]: 86.8%

COc1cc(NN=C(C#N)C#N)cc2c1n(C)c(=O)n2C [Compound 33, (7-methoxy-1,3-dimethyl-2-oxo-2,3-dihydro-1H-benzo[d]imidazol-5-yl)carbonohydrazonoyl dicyanide]
Cell viability (% @10 μM) (Tau-BiFC cells): 114% | Human (%) amount of substrate remaining after the reaction [1]: 93.2% | Mouse (%) amount of substrate remaining after the reaction [1]: 78.7% | Rat (%) amount of substrate remaining after the reaction [1]: 85.5%
